Here are results for four molecules from patent US6878733B1, “Formulations for pharmaceutical agents ionizable as free acids or free bases” (Sugen, Inc., priority 1999, dated 2005).

One series concerns the target Flk-1/KDR (Homo sapiens, UniProt P35968). Description: Inhibition of signal transduction via Flk-1/KDR.
A further series concerns PDGF receptor. Description: Inhibition of signal transduction via PDGF receptor.
Another series concerns FGF receptor. Description: Inhibition of signal transduction via FGF receptor.
For a further series, the system named is A375 human melanoma. Description: SC tumor xenograft growth, A375. The format is in vivo. To be noted: IP in DMSO, 75 mg/kg/d dosed 3x/week. The procedure:
(§1) In most experiments, compound was administered daily.
(§2) Tumor growth was measured using venier calipers. Tumor volumes were calculated as the produce of length x width x height.

The subject of another series is C6 rat glioma. In words: SC tumor xenograft growth, C6, treatment from one day post-implantation. Format: in vivo, BALB/c nu/nu mice. To be noted: IP. The procedure: as §1, §2
In the next series the test system is SF763T human glioma. Description: SC tumor xenograft growth, SF763T. Format: in vivo, BALB/c nu/nu mice. To be noted: IP in DMSO, 75 mg/kg/d daily. The procedure:
(§3) Medium was changed every two to three days.
as §1, §2

A further series relates to SF767T human glioma. Description: SC tumor xenograft growth, SF767T. Format: in vivo, BALB/c nu/nu mice. The note with it: IP in DMSO, 75 mg/kg/d daily. The procedure:
as §3, §1, §2

Another series has as its system A431 human epidermal. In words: SC tumor xenograft growth, A431. The format is in vivo, BALB/c nu/nu mice. The note with it: IP in DMSO, 100 mg/kg/d daily. The procedure: as §1, §2
Series [1] concerns EpH4-VEGF1 murine epithelial. In words: SC tumor xenograft growth, EpH4-VEGF1. The format is in vivo. The note with it: IP in DMSO, 75 mg/kg/d daily. On the procedure: as §1, §2
A further series relates to C6 cells. In words: Efficacy on established C6 SC tumors. Format: in vivo, athymic mice. To be noted: IP 75 mg/kg/day, onset delayed until measurable tumors were present (Day 7).
Another series can be described thus: pH solubility profile. The format is physicochemical. The note with it: 0.1 M phosphate buffer, thermodynamic from solid.
A further series in a line: physchem. The format is physicochemical.
Series [2] in a line: Solubility of in situ salts versus free acid. The format is physicochemical.
Series [3] is described as follows: Oral bioavailability of formulations in beagle dogs. The note with it: at higher doses in fasted conditions. Format: in vivo. The procedure:
The formulation described below enhance the oral bioaviability of COMPOUND IV in beagle dogs, a preclinical absorption model.
Both formulations contain 50 mg/gm of Pluroanic F-68. The formulation at 50 mg/gm of COMPOUND IV contains 900 mgs of sesame oil and the one that contains 250 mg/gm of COMPOUND IV contains 700 mgs of sesame oil.
AUC refers to the area under the curve of the plasma concentration time curve and represents oral bioavilability (BA). Higher AUC indicates higher BA.

Converted amounts (≈) assume the structure as drawn.

Flk-1/KDR, sequence (P35968 20-1356): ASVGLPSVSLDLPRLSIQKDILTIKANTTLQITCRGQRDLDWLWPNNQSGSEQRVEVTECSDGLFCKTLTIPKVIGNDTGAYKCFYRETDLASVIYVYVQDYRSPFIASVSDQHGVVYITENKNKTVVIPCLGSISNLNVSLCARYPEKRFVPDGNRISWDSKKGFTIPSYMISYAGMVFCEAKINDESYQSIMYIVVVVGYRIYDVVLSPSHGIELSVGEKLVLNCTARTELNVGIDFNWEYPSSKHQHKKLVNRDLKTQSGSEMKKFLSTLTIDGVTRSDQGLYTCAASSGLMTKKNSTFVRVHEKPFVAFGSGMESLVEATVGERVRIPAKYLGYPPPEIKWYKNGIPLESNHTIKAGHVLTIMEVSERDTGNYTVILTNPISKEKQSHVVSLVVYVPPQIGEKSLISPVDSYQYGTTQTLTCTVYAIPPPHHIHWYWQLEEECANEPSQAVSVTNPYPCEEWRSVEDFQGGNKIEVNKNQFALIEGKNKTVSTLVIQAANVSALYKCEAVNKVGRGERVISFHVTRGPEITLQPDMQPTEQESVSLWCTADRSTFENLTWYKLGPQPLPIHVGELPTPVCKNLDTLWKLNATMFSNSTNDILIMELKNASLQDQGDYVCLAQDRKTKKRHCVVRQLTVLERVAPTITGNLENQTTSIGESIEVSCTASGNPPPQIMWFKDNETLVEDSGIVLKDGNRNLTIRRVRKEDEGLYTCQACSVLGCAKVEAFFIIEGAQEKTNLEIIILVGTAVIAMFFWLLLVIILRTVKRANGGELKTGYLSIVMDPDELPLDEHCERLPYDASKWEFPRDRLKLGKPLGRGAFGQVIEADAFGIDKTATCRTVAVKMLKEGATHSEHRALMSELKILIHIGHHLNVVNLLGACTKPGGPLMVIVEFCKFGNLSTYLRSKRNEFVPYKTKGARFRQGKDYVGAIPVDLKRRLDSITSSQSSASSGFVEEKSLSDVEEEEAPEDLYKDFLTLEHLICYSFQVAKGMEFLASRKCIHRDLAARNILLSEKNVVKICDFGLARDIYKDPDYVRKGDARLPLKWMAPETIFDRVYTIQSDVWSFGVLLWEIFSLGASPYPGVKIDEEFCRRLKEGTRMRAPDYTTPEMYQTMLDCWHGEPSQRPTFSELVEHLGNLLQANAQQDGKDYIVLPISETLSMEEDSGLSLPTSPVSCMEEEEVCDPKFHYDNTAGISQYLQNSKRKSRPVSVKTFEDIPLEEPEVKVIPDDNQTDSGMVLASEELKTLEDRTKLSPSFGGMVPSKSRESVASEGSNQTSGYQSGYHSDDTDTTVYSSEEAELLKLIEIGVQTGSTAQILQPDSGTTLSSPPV
Description for pH solubility profile: The solution was filtered, appropriate dilutions made and the concentration of the compound in the supernatant was analyzed by a reverse phase HPLC method.

In the case of `Cc1[nH]c(C=C2C(=O)Nc3ccccc32)c(C)c1CCC(=O)O` [3-[2,4-Dimethyl-5-(2-oxo-1,2-dihydro-indol-3-ylidenemethyl)-1H-pyrrol-3-yl]-propionic acid], the “inhibitor of signal transduction via Flk-1/KDR” value against Flk-1/KDR is reported as “potent inhibitor”. The “inhibitor of signal transduction via PDGF receptor” value in the series with PDGF receptor is “potent inhibitor”. Besides, the “inhibitor of signal transduction via FGF receptor” value in the series on FGF receptor is listed as “potent inhibitor”. Further, the “% Mortality” value in the series with A375 human melanoma stood at 0%; with SF763T human glioma, 12.5%; in the series with SF767T human glioma it was 12.5%; in the series on A431 human epidermal it was 12.5%; in [1] it was 0%. The “% Inhibition (at day)” value in the series with C6 rat glioma (25 mg/kg Daily × 5, day 18, ns (P > 0.05)) was 1 (18) %. In addition, in the series on C6 rat glioma (100 mg/kg twice weekly or three times weekly, statistically significant), the tumor growth inhibition entry is recorded as “approximately 40%”. In addition, the “efficacy on established tumors” value in the series with C6 cells is on record as “efficacious”. Moreover, the solubility in “pH solubility profile” (pH 6, aqueous buffer, pH of buffer 6.0 (0.1 M phosphate), average pH at equilibrium 6.06, two lots) was 2.4 µg/mL (≈ 7.73 µM); in “pH solubility profile” (pH 6.5, aqueous buffer, pH of buffer 6.5 (0.1 M phosphate), average pH at equilibrium 6.52), 4 µg/mL (≈ 12.9 µM); in “pH solubility profile” (pH 7, aqueous buffer, pH of buffer 7.0 (0.1 M phosphate), average pH at equilibrium 6.96), 9 µg/mL (≈ 29 µM); in “pH solubility profile” (pH 7.4, aqueous buffer, pH of buffer 7.4 (0.1 M phosphate), average pH at equilibrium 7.39) it was 19 µg/mL (≈ 61.2 µM). Besides, the logP in the series “physchem” was found to be 3.85. Moreover, the pKa in “physchem” came to 5.02. This molecule also registered a logD in “physchem” (pH 7.4) of 1.5.
Regarding `Cc1[nH]c(C=C2C(=O)Nc3ccccc32)c(C)c1CCC(=O)O` [free acid, 3-[2,4-dimethyl-5-(2-oxo-1,2-dihydro-indol-3-ylidenemethyl)-1H-pyrrol-3-yl]-propionic acid], the solubility was less than 100 µg/mL in series [2] (water, aqueous, sodium salt compared to free acid, read-out: solubility) and roughly 30 µg/mL in [2] (water, free acid, for comparison with the sodium salt, read-out: aqueous solubility).
With `Cc1[nH]c(C=C2C(=O)Nc3ccccc32)c(C)c1CCC(=O)O` [Meglumine, 3-[2,4-dimethyl-5-(2-oxo-1,2-dihydro-indol-3-ylidenemethyl)-1H-pyrrol-3-yl]-propionic acid], in series [2] (aqueous solution of the salt formed in situ, salt of 3-[2,4-dimethyl-5-(2-oxo-1,2-dihydro-indol-3-ylidenemethyl)-1H-pyrrol-3-yl]-propionic acid, in situ salt formation, pH in the column beside, read-out: Solubility), the solubility was found to be 7900 µg/mL.
Consider `Cc1[nH]c(/C=C2\C(=O)Nc3ccccc32)c(C)c1CCC(=O)O` [COMPOUND IV, 3-[2,4-dimethyl-5-(2-oxo-1,2-dihydro-indol-3-ylidenemethyl)-1H-pyrrol-3-yl]-propionic acid], for which the oral bioavailability result in series [3] is given as “low bioavailability”.

What is called solubility is how much of the substance goes into solution per volume. A word on the logP: it is a log measure of how a compound divides between an organic and an aqueous phase. Low readings indicate a more hydrophilic compound, high ones a more lipophilic compound. For orientation: pKa means the pH at which an ionisable group is half protonated. The logD is lipophilicity at a set pH, counting ionised and neutral species. Lower therefore signals a more hydrophilic compound.
